Measurements reported in patent publication US9096593B2, “Compounds and methods for kinase modulation, and indications therefor” (Plexxikon Inc., priority 2009, dated 2015).
Where two headings read alike, the source gives them in different places.

Assays:
Fms kinase = Fms kinase (Homo sapiens (Human), UniProt P07333); test: Fms kinase biochemical activity assay (AlphaScreen, biotin-(E4Y)10 phosphorylation)
In short: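 Recombinant human Fms phosphorylating 30 nM biotin-(E4Y)10 with 100 μM ATP (1 ng/well enzyme) in Hepes pH 7.5 buffer with Mg2+/Mn2+, 5% DMSO, 20 min at 30 °C. Phosphotyrosine detected by AlphaScreen streptavidin donor/PY20 acceptor beads; IC50 from signal versus compound concentration.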

BCR-KIT/BaF3 cells = BCR-KIT/BaF3 cells (Homo sapiens, UniProt P10721); test: BCR-KIT/BaF3 cell proliferation assay (ATPlite); format: cell-based; conditions: read-out: BCR/BaF3 (IC50 μM) Kit
Procedure: Compounds are assessed in a variety of cell based assays. For example BCR-FMS/BaF3, BCR-KIT/BaF3, M-NFS-60, M-07e, and BAC1.2F5 cell proliferation assays are used to assess inhibitory activity of Fms or Kit and MV-4-11 cell proliferation assay is used to assess inhibitory activity in Flt-3. Reagent and assay conditions are as follows: • BCR-FMS/BaF3 and BCR-KIT/BaF3 cells: • Maintained in RPMI containing 10% FBS, 1% PenStrep, 1% NEAA, and 1% L-Glutamine, supplemented with 1 mg/mL G418 and 5% WEHI-CM (or recombinant murine IL-3). • Confluent cells are split 1:50 to 1:100 every 3-4 days. • M-NFS-60 cells (ATCC #CRL-1838): • Maintained in RPMI containing 10% FBS, 1% Hepes, 1% NaPyruvate, and 0.45% Glucose, supplemented with 62 ng/mL murine M-CSF. • Confluent cells are split 1:20 every 3-4 days. • M-07e cells (DSMZ #ACC 104): • Maintained in IMDM containing 10% FBS, supplemented with either 200 ng/mL human SCF or […] SCF (R&D Systems 255-SC). • Confluent cells are split 1:5 to 1:10 every 3-4 days. • BAC1.2F5 cells: • Maintained in Alpha-MEM containing 10% Newborn Calf Serum (Invitrogen #26010-074) supplemented with 36 ng/mL murine M-CSF. • Confluent cells are split 1:4 every 3-4 days. • MV-4-11 cells: • Maintained in Iscove's Modified Dulbecco's Medium containing 10% FBS. • Confluent cells are split 1:4 every 3-4 days. On day 1, cells are counted, then centrifuged in a conical tube for 5 minutes at 1000 rpm. The supernatant is removed and cells are re-suspended as follows: • BCR-FMS/BaF3 and BCR-KIT/BaF3: resuspend in growth media+1 mg/mL G418 (without WEHI/IL-3) to 2×10^5 cells/mL. • M-NFS-60: resuspend in growth media +62 ng/mL murine M-CSF to 5×10^5 cells/mL. • M-07e: resuspend in growth media +200 ng/mL human SCF to 5×10^5 cells/mL. • BAC1.2F5: resuspend in growth media +36 ng/mL murine M-CSF to 1.4×10^5 cells/mL. • MV-4-11: resuspend in growth media +10% FBS to 5×10^5 cells/mL. The cells are plated (50 μL) in each well of a 96-well dish (Corning 3610) and incubated at 37° C. in 5% CO2 overnight, cells plated to a final concentration of cells as follows: • BCR-FMS/BaF3 and BCR-KIT/BaF3: 10,000 cells per well. • M-NFS-60: 25,000 cells per well. • M-07e: 25,000 cells per well. • BAC1.2F5: 7,000 cells per well. • MV-4-11: 25,000 cells per well. On day 2, compound at a maximum concentration of 5 mM is serially diluted 1:3 for a total of 8 point titration with DMSO as a control. A 1 μL aliquot of each dilution point is added to 249 μL growth media and 50 μL is added to a well containing cells, providing 10 μM compound for the maximum concentration point. The cells are incubated for 3 days at 37° C. in 5% CO2. On day 5, ATPlite 1 step Luminescence Assay System (Perkin Elmer #6016739) is brought to room temperature along with the cell cultures. ATPlite is added to each well as follows: • BCR-FMS/BaF3 and BCR-KIT/BaF3: 25 μL per well. • M-NFS-60: 25 μL per well. • M-07c: 40 μL per well. • BAC1.2F5: 50 μL per well. • MV-4-11: 40 μL per well. The cells are incubated at room temperature for 10 minutes, then luminescence is read on Safire reader. The measured luminescence correlates directly with cell number, such that the reading as a function of compound concentration is used to determine the IC50 value.

[1] = 100 μM ATP, read-out: Biochemical (IC50 μM) Fms
[2] = read-out: Biochemical activity (IC50 μM) Fms

Sequence of Fms kinase (P07333 20-972): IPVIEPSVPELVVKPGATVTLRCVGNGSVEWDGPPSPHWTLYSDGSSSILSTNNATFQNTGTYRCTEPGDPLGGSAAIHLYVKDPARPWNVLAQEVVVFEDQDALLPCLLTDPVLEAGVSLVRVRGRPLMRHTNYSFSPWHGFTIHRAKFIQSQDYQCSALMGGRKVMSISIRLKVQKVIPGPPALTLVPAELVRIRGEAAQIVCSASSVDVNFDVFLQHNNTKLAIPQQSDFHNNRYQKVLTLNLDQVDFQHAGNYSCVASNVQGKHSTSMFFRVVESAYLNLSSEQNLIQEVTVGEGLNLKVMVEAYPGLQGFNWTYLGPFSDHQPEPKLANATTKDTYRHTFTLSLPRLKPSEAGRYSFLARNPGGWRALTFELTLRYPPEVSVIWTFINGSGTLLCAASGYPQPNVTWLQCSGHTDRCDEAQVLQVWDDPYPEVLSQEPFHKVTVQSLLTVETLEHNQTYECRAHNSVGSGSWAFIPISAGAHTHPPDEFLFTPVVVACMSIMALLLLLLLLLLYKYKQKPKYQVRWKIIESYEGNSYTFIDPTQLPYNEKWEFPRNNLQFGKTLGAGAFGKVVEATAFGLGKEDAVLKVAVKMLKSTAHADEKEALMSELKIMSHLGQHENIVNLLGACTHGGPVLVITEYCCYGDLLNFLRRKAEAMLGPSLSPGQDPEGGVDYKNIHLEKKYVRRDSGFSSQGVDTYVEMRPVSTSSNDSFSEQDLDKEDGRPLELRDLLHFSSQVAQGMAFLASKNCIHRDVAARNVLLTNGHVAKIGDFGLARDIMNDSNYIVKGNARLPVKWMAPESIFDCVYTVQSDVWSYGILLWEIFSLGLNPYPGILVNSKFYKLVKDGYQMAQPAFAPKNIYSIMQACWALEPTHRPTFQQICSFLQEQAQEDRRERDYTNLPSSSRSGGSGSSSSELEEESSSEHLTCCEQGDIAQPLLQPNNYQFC
Sequence of BCR-KIT/BaF3 cells (P10721 26-976 limits assumed, change not shown): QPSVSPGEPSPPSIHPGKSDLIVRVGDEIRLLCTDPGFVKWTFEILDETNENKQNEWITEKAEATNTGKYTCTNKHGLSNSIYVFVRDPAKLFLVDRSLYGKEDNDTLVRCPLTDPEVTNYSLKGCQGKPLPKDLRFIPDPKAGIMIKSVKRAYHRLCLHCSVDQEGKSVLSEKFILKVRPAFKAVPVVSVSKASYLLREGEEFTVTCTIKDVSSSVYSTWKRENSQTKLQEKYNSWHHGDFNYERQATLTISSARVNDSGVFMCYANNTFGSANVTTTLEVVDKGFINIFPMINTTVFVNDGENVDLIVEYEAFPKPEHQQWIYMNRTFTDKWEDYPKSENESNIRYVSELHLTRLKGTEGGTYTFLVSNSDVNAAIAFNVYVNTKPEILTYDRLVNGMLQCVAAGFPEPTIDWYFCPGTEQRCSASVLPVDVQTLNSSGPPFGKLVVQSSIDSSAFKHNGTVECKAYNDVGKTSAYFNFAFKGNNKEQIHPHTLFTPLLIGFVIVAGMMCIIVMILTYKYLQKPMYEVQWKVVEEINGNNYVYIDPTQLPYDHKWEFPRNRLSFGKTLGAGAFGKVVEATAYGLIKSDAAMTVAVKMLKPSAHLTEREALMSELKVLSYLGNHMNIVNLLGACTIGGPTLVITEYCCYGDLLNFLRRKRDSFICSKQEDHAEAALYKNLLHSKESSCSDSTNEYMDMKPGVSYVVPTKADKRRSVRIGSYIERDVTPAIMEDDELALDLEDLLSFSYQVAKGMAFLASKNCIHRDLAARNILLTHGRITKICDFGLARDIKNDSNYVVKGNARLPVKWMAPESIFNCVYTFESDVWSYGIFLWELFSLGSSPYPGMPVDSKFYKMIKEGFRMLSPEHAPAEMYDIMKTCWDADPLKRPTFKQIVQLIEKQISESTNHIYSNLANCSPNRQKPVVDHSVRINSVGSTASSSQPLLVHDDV

Structure (SMILES) | IC50 (Fms kinase; [1]) [µM] | Biochemical activity selectivity (Kit IC50/Fms IC50) (Fms kinase) | IC50 (Fms kinase; [2]) [µM] | IC50 (BCR-KIT/BaF3 cells) [µM]
COc1ccc(CNc2ncc(Cc3c[nH]c4ncc(Cl)cc34)cn2)cn1 [Compound P-2038, [5-(5-Chloro-1H-pyrrolo[2,3-b]pyridin-3-ylmethyl)-pyrimidin-2-yl]-(6-methoxy-pyridin-3-ylmethyl)-amine] | < 0.1 | <20 | < 0.1 | > 0.1
Fc1nc(NCc2ccc(Cl)cn2)ccc1Cc1c[nH]c2ncccc12 [Compound P-2044, (5-Chloro-pyridin-2-ylmethyl)-[6-fluoro-5-(1H-pyrrolo[2,3-b]pyridin-3-ylmethyl)-pyridin-2-yl]-amine] | < 0.1 | – | – | –
Cc1cnc2[nH]cc(Cc3ccc(NCc4cnccc4C(F)(F)F)nc3F)c2c1 [Compound P-2062, [6-Fluoro-5-(5-methyl-1H-pyrrolo[2,3-b]pyridin-3-ylmethyl)-pyridin-2-yl]-(4-trifluoromethyl-pyridin-3-ylmethyl)-amine] | – | >20 | < 0.1 | > 0.1
COc1ccc(CNc2ncc(Cc3c[nH]c4ncc(C)cc34)cc2C)cn1 [Compound P-1554, (6-Methoxy-pyridin-3-ylmethyl)-[3-methyl-5-(5-methyl-1H-pyrrolo[2,3-b]pyridin-3-ylmethyl)-pyridin-2-yl]-amine] | – | <20 | < 0.1 | > 0.1
COc1ncc(F)cc1CNc1ncc(Cc2c[nH]c3ncc(Cl)cc23)cn1 [Compound P-2064, [5-(5-Chloro-1H-pyrrolo[2,3-b]pyridin-3-ylmethyl)-pyrimidin-2-yl]-(5-fluoro-2-methoxy-pyridin-3-ylmethyl)-amine] | – | >20 | < 0.1 | > 0.1
Cc1cnc2[nH]cc(Cc3cnc(NCc4ccc(C(F)(F)F)nc4)c(F)c3)c2c1 [Compound P-2146, [3-Fluoro-5-(5-methyl-1H-pyrrolo[2,3-b]pyridin-3-ylmethyl)-pyridin-2-yl]-(6-trifluoromethyl-pyridin-3-ylmethyl)-amine] | – | <20 | < 0.1 | > 0.1
CCS(=O)(=O)Nc1cc(F)cc(CNc2ccc(Cc3c[nH]c4ncc(C)cc34)c(F)n2)c1 [Compound P-2202, Ethanesulfonic acid (3-fluoro-5-{[6-fluoro-5-(5-methyl-1H-pyrrolo[2,3-b]pyridin-3-ylmethyl)-pyridin-2-ylamino]-methyl}-phenyl)-amide] | – | <20 | < 0.1 | > 0.1
COc1cc(CNc2ccc(Cc3c[nH]c4ncc(C)cc34)c(F)n2)c(F)cn1 [Compound P-2071, (5-Fluoro-2-methoxy-pyridin-4-ylmethyl)-[6-fluoro-5-(5-methyl-1H-pyrrolo[2,3-b]pyridin-3-ylmethyl)-pyridin-2-yl]-amine] | – | >20 | < 0.1 | > 0.1
Cc1cc(CNc2ccc(Cc3c[nH]c4ncc(Cl)cc34)c(F)n2)ccn1 [Compound P-2075, [5-(5-Chloro-1H-pyrrolo[2,3-b]pyridin-3-ylmethyl)-6-fluoro-pyridin-2-yl]-(2-methyl-pyridin-4-ylmethyl)-amine] | – | >20 | < 0.1 | –
COc1ncc(F)cc1CNc1ccc(Cc2c[nH]c3ncc(NC(C)=O)cc23)c(F)n1 [Compound P-1669, N-(3-{2-fluoro-6-[(5-fluoro-2-methoxy-pyridin-3-ylmethyl)-amino]-pyridin-3-ylmethyl}-1H-pyrrolo[2,3-b]pyridin-5-yl)-acetamide] | – | – | – | > 0.1
COc1cnc2[nH]cc(Cc3ccc(NCc4ccccc4Cl)nc3F)c2c1 [Compound P-2034, (2-chloro-benzyl)-[6-fluoro-5-(5-methoxy-1H-pyrrolo[2,3-b]pyridin-3-ylmethyl)-pyridin-2-yl]-amine] | < 0.1 | – | – | –
